Data: US8217035B2, “Pyrimidine derivatives used as PI-3-kinase inhibitors” (Novartis AG, priority 2006, dated 2012)

Assays:
[1] = biological target: PI3 kinase alpha (Homo sapiens, UniProt P42336); test: PI3K ATP depletion assay (Biological Method 1, Assay 3; KinaseGlo luminescence); type: biochemical; settings: ATP depletion assay, Biological Method 1; read-out: PI3 Kinase Alpha, IC50
Procedure, shortened: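 Compound in DMSO was mixed with 10 nM PI3 kinase and 5 μg/mL phosphatidylinositol, and the reaction was started with 2 μM ATP. It ran to about 50% ATP depletion and was stopped with KinaseGlo.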

[2] = system: A2780 ovarian cancer cells; test: Cellular proliferation in A2780 cells, Cell Titer Glo (Biological Method 4); type: cell-based; settings: Homo sapiens; ovarian cancer cell line A2780, Biological Method 4
Procedure: In addition, many of the compounds of Table 1 were tested to determine their inhibitory activity in a cellular proliferation assay according to Biological Method 4.
The ability of the compounds of the invention to inhibit cellular proliferation were determined by using Cell Titer Glo, a commercially available assay from Promega Corporation. A2780 ovarian cancer cells were seeded in TC treated 96-well plates at a density of 1,000 per well in DMEM, 10% FBS, 1% Sodium Pyruvate, and 1% Penicillin Streptomycin for a minimum of 2 hrs prior to addition of compound. For each concentration of test compound, 2 μl (500×) aliquots of compound or 100% DMSO diluted in 500 μl of culture medium for 2× concentration then diluted 1× on the Cells. Cells were incubated for 72 hrs at 37° C., 5% CO2. After the 72 hour incubation, Cell Titer Glo reagent is added to determine number of viable cells remaining after exposure to the compound, and the EC50 value was calculated. The assay was performed according to the manufacturer's instruction (Promega Corporation, Madison, Wis. USA). Each experimental condition was performed in duplicate.

Sequence of PI3 kinase alpha (P42336 whole entry): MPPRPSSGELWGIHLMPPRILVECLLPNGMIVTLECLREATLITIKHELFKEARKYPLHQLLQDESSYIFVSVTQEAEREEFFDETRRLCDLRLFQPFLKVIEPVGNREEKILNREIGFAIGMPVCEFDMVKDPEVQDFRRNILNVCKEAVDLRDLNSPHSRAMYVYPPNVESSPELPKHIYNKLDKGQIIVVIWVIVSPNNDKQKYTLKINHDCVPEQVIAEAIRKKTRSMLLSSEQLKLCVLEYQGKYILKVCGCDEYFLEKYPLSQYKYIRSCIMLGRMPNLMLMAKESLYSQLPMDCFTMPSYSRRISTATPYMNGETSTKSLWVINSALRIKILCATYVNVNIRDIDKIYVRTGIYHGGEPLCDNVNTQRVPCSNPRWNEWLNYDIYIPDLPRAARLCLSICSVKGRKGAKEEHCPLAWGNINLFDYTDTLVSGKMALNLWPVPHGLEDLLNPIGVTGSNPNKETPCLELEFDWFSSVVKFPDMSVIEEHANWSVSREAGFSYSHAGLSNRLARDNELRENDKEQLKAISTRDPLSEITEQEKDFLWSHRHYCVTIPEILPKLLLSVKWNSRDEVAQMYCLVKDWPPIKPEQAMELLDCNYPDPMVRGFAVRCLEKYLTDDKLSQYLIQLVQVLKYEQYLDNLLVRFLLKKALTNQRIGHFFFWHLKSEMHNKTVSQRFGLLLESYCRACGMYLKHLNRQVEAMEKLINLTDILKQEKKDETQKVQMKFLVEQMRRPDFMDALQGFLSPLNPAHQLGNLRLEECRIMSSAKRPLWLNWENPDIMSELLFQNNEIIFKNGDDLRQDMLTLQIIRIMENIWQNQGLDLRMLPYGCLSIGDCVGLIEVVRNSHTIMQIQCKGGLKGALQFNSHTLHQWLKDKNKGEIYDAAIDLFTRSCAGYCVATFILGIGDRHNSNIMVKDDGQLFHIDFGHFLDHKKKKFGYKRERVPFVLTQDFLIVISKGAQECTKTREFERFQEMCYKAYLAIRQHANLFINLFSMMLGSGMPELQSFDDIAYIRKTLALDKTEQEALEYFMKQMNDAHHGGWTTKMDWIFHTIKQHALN
Sequence of PI3 kinase alpha (P27986 whole entry partner): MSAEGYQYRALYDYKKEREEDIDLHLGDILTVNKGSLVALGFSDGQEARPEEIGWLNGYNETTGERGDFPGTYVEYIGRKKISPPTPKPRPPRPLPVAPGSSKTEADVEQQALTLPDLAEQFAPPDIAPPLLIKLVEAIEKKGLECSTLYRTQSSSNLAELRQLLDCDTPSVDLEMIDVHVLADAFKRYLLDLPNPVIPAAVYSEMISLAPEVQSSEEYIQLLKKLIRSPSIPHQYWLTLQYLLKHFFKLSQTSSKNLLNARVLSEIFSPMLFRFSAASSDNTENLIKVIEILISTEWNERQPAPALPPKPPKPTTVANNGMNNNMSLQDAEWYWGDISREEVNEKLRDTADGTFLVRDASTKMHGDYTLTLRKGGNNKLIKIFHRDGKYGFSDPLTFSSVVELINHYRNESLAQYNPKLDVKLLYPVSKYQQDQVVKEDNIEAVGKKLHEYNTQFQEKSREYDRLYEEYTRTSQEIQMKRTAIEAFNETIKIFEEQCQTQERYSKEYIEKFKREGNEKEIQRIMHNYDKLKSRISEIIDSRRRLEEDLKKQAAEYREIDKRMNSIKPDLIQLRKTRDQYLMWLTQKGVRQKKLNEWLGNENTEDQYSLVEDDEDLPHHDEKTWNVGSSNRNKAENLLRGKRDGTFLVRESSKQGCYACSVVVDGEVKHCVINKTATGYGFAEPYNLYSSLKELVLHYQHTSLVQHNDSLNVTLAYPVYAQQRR

IC50 [1] [nM]	EC50 [2] [nM]	SMILES
< 1000	< 25000	Nc1cc(C(F)(F)F)c(-c2cc(N3CCOC(C(=O)O)C3)nc(N3CCOCC3)n2)cn1 (centres unmarked) [Compound 333]
< 1000	< 10000	Nc1cc(C(F)(F)F)c(-c2cc(N3CCOC(c4ccc(C(F)(F)F)cc4)C3)nc(N3CCOCC3)n2)cn1 (centres unmarked) [Compound 334]
< 1000	< 10000	Nc1cc(C(F)(F)F)c(-c2cc(N3CCOC(c4ccc(F)cc4)C3)nc(N3CCOCC3)n2)cn1 (centres unmarked) [Compound 335]
< 1000	< 10000	Nc1cc(C(F)(F)F)c(-c2cc(N3CCOC(c4ccc(Cl)cc4)C3)nc(N3CCOCC3)n2)cn1 (centres unmarked) [Compound 336]
< 1000	< 25000	Nc1cc(C(F)(F)F)c(-c2cc(N3CCOC(c4ccccc4Cl)C3)nc(N3CCOCC3)n2)cn1 (centres unmarked) [Compound 337]
< 1000	< 10000	Nc1cc(C(F)(F)F)c(-c2cc(N3CCOC(c4cccnc4)C3)nc(N3CCOCC3)n2)cn1 (centres unmarked) [Compound 338]
< 1000	< 10000	N#Cc1cc(N)ncc1-c1cc(N2CCOC(c3ccccc3)C2)nc(N2CCOCC2)n1 (centres unmarked) [Compound 341]
< 1000	< 10000	Nc1cc(Cl)c(-c2cc(N3CCOC(c4ccccc4)C3)nc(N3CCOCC3)n2)cn1 (centres unmarked) [Compound 342]
< 1000	< 25000	Nc1ncc(-c2cc(N3CCOC(c4ccccc4)C3)nc(N3CCOCC3)n2)c(C(F)(F)F)n1 (centres unmarked) [Compound 343]
< 1000	< 10000	Nc1cc(C(F)(F)F)c(-c2cc(N3CCOC(c4ccccc4)C3)nc(N3CCOCC3)n2)cn1 (centres unmarked) [Compound 344]
< 1000	< 10000	Nc1ccc(-c2cc(-n3ncc4cccc(N)c43)nc(N3CCOCC3)n2)cn1 [Compound 345]
< 1000	< 10000	Nc1ccc(-c2cc(Nc3cccc4[nH]ncc34)nc(N3CCOCC3)n2)cn1 [Compound 347]
< 1000	< 25000	NC(=O)c1ccnc(Nc2cc(-c3ccc(N)nc3)nc(N3CCOCC3)n2)c1 [Compound 348]
< 1000	< 25000	Nc1ccc(-c2cc(Nc3cc(Cl)ccn3)nc(N3CCOCC3)n2)cn1 [Compound 349]
< 1000	< 25000	Nc1ccc(-c2cc(Nc3cc(C(F)(F)F)ccn3)nc(N3CCOCC3)n2)cn1 [Compound 350]
< 1000	< 25000	Nc1ccc(-c2cc(Nc3cc(F)ccn3)nc(N3CCOCC3)n2)cn1 [Compound 351]

IC50 [1] [nM]	EC50 [2] [nM]	SMILES
< 1000	< 10000	NC(=O)c1ccccc1Nc1cc(-c2ccc(N)nc2)nc(N2CCOCC2)n1 [Compound 352]
< 1000	< 10000	CC(=O)N1CCc2ccc(Nc3cc(-c4ccc(N)nc4)nc(N4CCOCC4)n3)cc21 [Compound 356]
< 1000	< 25000	Nc1ccc(-c2cc(Nc3ccc(-c4cnco4)cc3)nc(N3CCOCC3)n2)cn1 [Compound 357]
< 1000	< 10000	Nc1ccc(-c2cc(Nc3ccc(S(=O)(=O)C(F)(F)F)cc3)nc(N3CCOCC3)n2)cn1 [Compound 358]
< 1000	< 1000	CC(=O)c1ccc(Nc2cc(-c3ccc(N)nc3)nc(N3CCOCC3)n2)cc1 [Compound 359]
< 1000	< 10000	CC(=O)Nc1ccc(Nc2cc(-c3ccc(N)nc3)nc(N3CCOCC3)n2)cc1 [Compound 360]
< 1000	< 10000	CS(=O)(=O)Nc1cccc(Nc2cc(-c3ccc(N)nc3)nc(N3CCOCC3)n2)c1 [Compound 361]
< 1000	< 10000	Nc1ccc(-c2cc(Nc3cccc(S(N)(=O)=O)c3)nc(N3CCOCC3)n2)cn1 [Compound 362]
< 1000	< 10000	CC(=O)Nc1cccc(Nc2cc(-c3ccc(N)nc3)nc(N3CCOCC3)n2)c1 [Compound 363]
< 1000	< 10000	Nc1ccc(-c2cc(Nc3cnc4ccc(O)cc4c3)nc(N3CCOCC3)n2)cn1 [Compound 367]
< 1000	< 10000	CN(c1cc(-c2ccc(N)nc2)nc(N2CCOCC2)n1)C1CCOCC1 [Compound 368]
< 1000	< 25000	Nc1ccc(-c2cc(Cl)nc(N3CCOCC3)n2)cn1 [Compound 369]
< 1000	< 10000	Nc1ccc(-c2cc(N3CCOC(c4ccccc4)C3)nc(N3CCOCC3)n2)cn1 (centres unmarked) [Compound 371]
< 1000	< 10000	Nc1ccc(-c2cc(Nc3ccc4nccnc4c3)nc(N3CCOCC3)n2)cn1 [Compound 377]
< 1000	< 10000	Nc1ccc(-c2cc(Nc3cccnc3)nc(N3CCOCC3)n2)cn1 [Compound 378]
